PubChem BioAssay AID2060897 (Molecular Pharmacology Branch, DTP, NCI, 2025)
Values joined by “and” are separate entries in the source; they are usually repeats but may differ in a detail not shown here. Equal values may be shown once.

Test system: 966289-007-R4-J1-PDC complex spheroid viability
Assay: Anticancer human tumor 966289-007-R4-J1-PDC patient-derived pancreatic adenocarcinoma cell line growth inhibition [RAS]
Details: for viability, T/C: stronger effect = lower value
Procedure, shortened: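 Agents were tested in combination matrices in half-log decrements from a top concentration at or near clinical Cmax (10 microM if undetermined). Targets were multi-cell spheroids of tumour lines plus HUVEC and MSC stromal cells.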
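Further: spheroids exposed to agents for one week before readout.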
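Wherever viability, T/C is given: percent viability relative to DMSO vehicle control wells as 100%.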

How did the viability, T/C (compound 0.00316 µM) turn out when `Nc1ccn(C2OC(CO)C(O)C2(F)F)c(=O)n1` (stereo unspecified) was run?
Its viability, T/C is 100% and 92.9% and 103% (2×).

What about the viability, T/C (compound 0.01 µM) of the same molecule?
Its viability, T/C is 30.1% [middle of 4 runs].

What about the viability, T/C (compound 0.0316 µM) of the same molecule?
The viability, T/C was 1.12% and 1.45% (2×) and 1.74%.

What about the viability, T/C (compound 0.1 µM) of the same molecule?
Its viability, T/C is 1.25% [middle of 4 runs].

And the viability, T/C (compound 0.316 µM)?
Its viability, T/C is 0.85% and 1.16% and 1.48%.

What about the viability, T/C (compound 1 µM) of the same molecule?
The viability, T/C was 1.33% [middle of 4 runs].

And the IC50 (curve of compound)?
Its IC50 is 7.29 nM [middle of 4 runs].

`Cc1nc(N2CCC3(CC2)COC(C)C3N)c(CO)nc1Sc1ccnc(N)c1Cl` (stereo unspecified) + C#Cc1c(F)ccc2cc(O)cc(-c3ncc4c(N5CC6CCC(C5)N6)nc(OCC56CCCN5CC(F)C6)nc4c3F)c12 was tested. Which IC50 (curve of first compound, second compound 0.0316 µM) did it give?
The IC50 was over 10000 nM.

What about the IC50 (curve of first compound, second compound 0.1 µM) of the same molecule?
Its IC50 is over 10000 nM.

What about the IC50 (curve of first compound, second compound 0.316 µM) of the same molecule?
Its IC50 is over 10000 nM.

What about the IC50 (curve of first compound, second compound 1 µM) of the same molecule?
Its IC50 is over 10000 nM.

What about the IC50 (curve of first compound, second compound 3.16 µM) of the same molecule?
Its IC50 is over 10000 nM.

And the IC50 (curve of first compound, second compound 10 µM)?
Its IC50 is over 10000 nM.

And the viability, T/C (second compound 0.0316 µM, first compound 0.0316 µM)?
Its viability, T/C is 107%.

What about the viability, T/C (second compound 0.0316 µM, first compound 0.1 µM) of the same molecule?
The viability, T/C was 92.5%.

What about the viability, T/C (second compound 0.0316 µM, first compound 0.316 µM) of the same molecule?
The viability, T/C was 111%.

And the viability, T/C (second compound 0.0316 µM, first compound 1 µM)?
Its viability, T/C is 80.5%.

And the viability, T/C (second compound 0.0316 µM, first compound 3.16 µM)?
The viability, T/C was 102%.

What about the viability, T/C (second compound 0.0316 µM, first compound 10 µM) of the same molecule?
Its viability, T/C is 92%.

And the viability, T/C (second compound 0.1 µM, first compound 0.0316 µM)?
Its viability, T/C is 107%.

And the viability, T/C (second compound 0.1 µM, first compound 0.1 µM)?
The viability, T/C was 94.7%.

What about the viability, T/C (second compound 0.1 µM, first compound 0.316 µM) of the same molecule?
Its viability, T/C is 103%.

And the viability, T/C (second compound 0.1 µM, first compound 1 µM)?
The viability, T/C was 92.6%.

And the viability, T/C (second compound 0.1 µM, first compound 3.16 µM)?
The viability, T/C was 95.1%.

And the viability, T/C (second compound 0.1 µM, first compound 10 µM)?
The viability, T/C was 90.9%.

And the viability, T/C (second compound 0.316 µM, first compound 0.0316 µM)?
Its viability, T/C is 91%.

And the viability, T/C (second compound 0.316 µM, first compound 0.1 µM)?
Its viability, T/C is 114%.

What about the viability, T/C (second compound 0.316 µM, first compound 0.316 µM) of the same molecule?
The viability, T/C was 115%.

And the viability, T/C (second compound 0.316 µM, first compound 1 µM)?
The viability, T/C was 115%.

And the viability, T/C (second compound 0.316 µM, first compound 3.16 µM)?
The viability, T/C was 93.5%.

What about the viability, T/C (second compound 0.316 µM, first compound 10 µM) of the same molecule?
The viability, T/C was 91.5%.

And the viability, T/C (second compound 1 µM, first compound 0.0316 µM)?
The viability, T/C was 93.1%.

What about the viability, T/C (second compound 1 µM, first compound 0.1 µM) of the same molecule?
Its viability, T/C is 112%.

What about the viability, T/C (second compound 1 µM, first compound 0.316 µM) of the same molecule?
Its viability, T/C is 113%.

And the viability, T/C (second compound 1 µM, first compound 1 µM)?
Its viability, T/C is 107%.

What about the viability, T/C (second compound 1 µM, first compound 3.16 µM) of the same molecule?
Its viability, T/C is 97.8%.

What about the viability, T/C (second compound 1 µM, first compound 10 µM) of the same molecule?
The viability, T/C was 87.3%.

What about the viability, T/C (second compound 3.16 µM, first compound 0.0316 µM) of the same molecule?
The viability, T/C was 104%.

And the viability, T/C (second compound 3.16 µM, first compound 0.1 µM)?
The viability, T/C was 104%.

What about the viability, T/C (second compound 3.16 µM, first compound 0.316 µM) of the same molecule?
Its viability, T/C is 113%.

And the viability, T/C (second compound 3.16 µM, first compound 1 µM)?
Its viability, T/C is 88.8%.

And the viability, T/C (second compound 3.16 µM, first compound 3.16 µM)?
Its viability, T/C is 88.2%.

What about the viability, T/C (second compound 3.16 µM, first compound 10 µM) of the same molecule?
The viability, T/C was 98%.

What about the viability, T/C (second compound 10 µM, first compound 0.0316 µM) of the same molecule?
Its viability, T/C is 91.8%.

What about the viability, T/C (second compound 10 µM, first compound 0.1 µM) of the same molecule?
Its viability, T/C is 97.1%.

And the viability, T/C (second compound 10 µM, first compound 0.316 µM)?
The viability, T/C was 100%.

And the viability, T/C (second compound 10 µM, first compound 1 µM)?
The viability, T/C was 89.8%.

And the viability, T/C (second compound 10 µM, first compound 3.16 µM)?
The viability, T/C was 95.2%.

What about the viability, T/C (second compound 10 µM, first compound 10 µM) of the same molecule?
Its viability, T/C is 85.5%.

With `CC1(C)CCC(Nc2ncc(C(F)(F)F)c(-c3c[nH]c4c(P(C)(C)=O)c(C#N)ccc34)n2)CN1` (stereo unspecified) + CCn1c(-c2cccnc2C(C)OC)c2c3cc(ccc31)N1CCOC(CC(NC(=O)C(C(C)C)N(C)C(=O)C3(F)CCN(C(=O)C#CC(C)(C)N(C)C)CC3)C(=O)N3CCCC(N3)C(=O)OCC(C)(C)C2)C1 as the molecule, how does the IC50 (curve of first compound, second compound 0.000949 µM) read?
Its IC50 is 4.98 nM.

What about the IC50 (curve of first compound, second compound 0.003 µM) of the same molecule?
Its IC50 is 5.32 nM.

What about the IC50 (curve of first compound, second compound 0.00949 µM) of the same molecule?
The IC50 was 4.93 nM.

And the IC50 (curve of first compound, second compound 0.03 µM)?
Its IC50 is 3.82 nM.

What about the IC50 (curve of first compound, second compound 0.0949 µM) of the same molecule?
The IC50 was 4.06 nM.

What about the IC50 (curve of first compound, second compound 0.3 µM) of the same molecule?
Its IC50 is 2.89 nM.

And the viability, T/C (second compound 0.000949 µM, first compound 0.000949 µM)?
Its viability, T/C is 136%.

And the viability, T/C (second compound 0.000949 µM, first compound 0.003 µM)?
The viability, T/C was 75.5%.

And the viability, T/C (second compound 0.000949 µM, first compound 0.00949 µM)?
The viability, T/C was 17.6%.

And the viability, T/C (second compound 0.000949 µM, first compound 0.03 µM)?
The viability, T/C was 7.64%.

What about the viability, T/C (second compound 0.000949 µM, first compound 0.0949 µM) of the same molecule?
Its viability, T/C is 5.45%.

And the viability, T/C (second compound 0.000949 µM, first compound 0.3 µM)?
Its viability, T/C is 7.38%.

And the viability, T/C (second compound 0.003 µM, first compound 0.000949 µM)?
Its viability, T/C is 90.5%.

What about the viability, T/C (second compound 0.003 µM, first compound 0.003 µM) of the same molecule?
The viability, T/C was 77.4%.

And the viability, T/C (second compound 0.003 µM, first compound 0.00949 µM)?
The viability, T/C was 22.3%.

And the viability, T/C (second compound 0.003 µM, first compound 0.03 µM)?
Its viability, T/C is 7.6%.

And the viability, T/C (second compound 0.003 µM, first compound 0.0949 µM)?
The viability, T/C was 5.79%.

What about the viability, T/C (second compound 0.003 µM, first compound 0.3 µM) of the same molecule?
Its viability, T/C is 7.11%.

And the viability, T/C (second compound 0.00949 µM, first compound 0.000949 µM)?
Its viability, T/C is 83.3%.

And the viability, T/C (second compound 0.00949 µM, first compound 0.003 µM)?
Its viability, T/C is 75.1%.

And the viability, T/C (second compound 0.00949 µM, first compound 0.00949 µM)?
Its viability, T/C is 16.9%.

And the viability, T/C (second compound 0.00949 µM, first compound 0.03 µM)?
The viability, T/C was 8.28%.

And the viability, T/C (second compound 0.00949 µM, first compound 0.0949 µM)?
Its viability, T/C is 5.11%.

And the viability, T/C (second compound 0.00949 µM, first compound 0.3 µM)?
Its viability, T/C is 5.09%.

What about the viability, T/C (second compound 0.03 µM, first compound 0.000949 µM) of the same molecule?
The viability, T/C was 72%.

What about the viability, T/C (second compound 0.03 µM, first compound 0.003 µM) of the same molecule?
The viability, T/C was 59.6%.

And the viability, T/C (second compound 0.03 µM, first compound 0.00949 µM)?
The viability, T/C was 13.6%.

And the viability, T/C (second compound 0.03 µM, first compound 0.03 µM)?
The viability, T/C was 5.23%.

What about the viability, T/C (second compound 0.03 µM, first compound 0.0949 µM) of the same molecule?
The viability, T/C was 4.63%.

And the viability, T/C (second compound 0.03 µM, first compound 0.3 µM)?
The viability, T/C was 3.91%.

What about the viability, T/C (second compound 0.0949 µM, first compound 0.000949 µM) of the same molecule?
Its viability, T/C is 71.8%.

And the viability, T/C (second compound 0.0949 µM, first compound 0.003 µM)?
Its viability, T/C is 65.2%.

What about the viability, T/C (second compound 0.0949 µM, first compound 0.00949 µM) of the same molecule?
The viability, T/C was 7.56%.

And the viability, T/C (second compound 0.0949 µM, first compound 0.03 µM)?
The viability, T/C was 3.47%.

What about the viability, T/C (second compound 0.0949 µM, first compound 0.0949 µM) of the same molecule?
Its viability, T/C is 3.17%.

And the viability, T/C (second compound 0.0949 µM, first compound 0.3 µM)?
The viability, T/C was 3.37%.

What about the viability, T/C (second compound 0.3 µM, first compound 0.000949 µM) of the same molecule?
The viability, T/C was 62.6%.

And the viability, T/C (second compound 0.3 µM, first compound 0.003 µM)?
The viability, T/C was 49.6%.

And the viability, T/C (second compound 0.3 µM, first compound 0.00949 µM)?
The viability, T/C was 6.28%.

And the viability, T/C (second compound 0.3 µM, first compound 0.03 µM)?
The viability, T/C was 2.91%.

What about the viability, T/C (second compound 0.3 µM, first compound 0.0949 µM) of the same molecule?
The viability, T/C was 2.13%.

And the viability, T/C (second compound 0.3 µM, first compound 0.3 µM)?
The viability, T/C was 1.99%.
